# Data from US10435399B2, “HDAC6 inhibitory heterocyclic compound” (TAKEDA PHARMACEUTICAL COMPANY LIMITED, priority 2017, dated 2019).
# Biological target: T1, HDAC6 enzyme (Homo sapiens, UniProt Q9UBN7)
# T1 construct: transducing full length HDAC6 gene into Sf-9 insect cells; GST; purchased SignalChem; host or cells: Sf-9 insect cells
# T1 sequence (Q9UBN7 1-1215): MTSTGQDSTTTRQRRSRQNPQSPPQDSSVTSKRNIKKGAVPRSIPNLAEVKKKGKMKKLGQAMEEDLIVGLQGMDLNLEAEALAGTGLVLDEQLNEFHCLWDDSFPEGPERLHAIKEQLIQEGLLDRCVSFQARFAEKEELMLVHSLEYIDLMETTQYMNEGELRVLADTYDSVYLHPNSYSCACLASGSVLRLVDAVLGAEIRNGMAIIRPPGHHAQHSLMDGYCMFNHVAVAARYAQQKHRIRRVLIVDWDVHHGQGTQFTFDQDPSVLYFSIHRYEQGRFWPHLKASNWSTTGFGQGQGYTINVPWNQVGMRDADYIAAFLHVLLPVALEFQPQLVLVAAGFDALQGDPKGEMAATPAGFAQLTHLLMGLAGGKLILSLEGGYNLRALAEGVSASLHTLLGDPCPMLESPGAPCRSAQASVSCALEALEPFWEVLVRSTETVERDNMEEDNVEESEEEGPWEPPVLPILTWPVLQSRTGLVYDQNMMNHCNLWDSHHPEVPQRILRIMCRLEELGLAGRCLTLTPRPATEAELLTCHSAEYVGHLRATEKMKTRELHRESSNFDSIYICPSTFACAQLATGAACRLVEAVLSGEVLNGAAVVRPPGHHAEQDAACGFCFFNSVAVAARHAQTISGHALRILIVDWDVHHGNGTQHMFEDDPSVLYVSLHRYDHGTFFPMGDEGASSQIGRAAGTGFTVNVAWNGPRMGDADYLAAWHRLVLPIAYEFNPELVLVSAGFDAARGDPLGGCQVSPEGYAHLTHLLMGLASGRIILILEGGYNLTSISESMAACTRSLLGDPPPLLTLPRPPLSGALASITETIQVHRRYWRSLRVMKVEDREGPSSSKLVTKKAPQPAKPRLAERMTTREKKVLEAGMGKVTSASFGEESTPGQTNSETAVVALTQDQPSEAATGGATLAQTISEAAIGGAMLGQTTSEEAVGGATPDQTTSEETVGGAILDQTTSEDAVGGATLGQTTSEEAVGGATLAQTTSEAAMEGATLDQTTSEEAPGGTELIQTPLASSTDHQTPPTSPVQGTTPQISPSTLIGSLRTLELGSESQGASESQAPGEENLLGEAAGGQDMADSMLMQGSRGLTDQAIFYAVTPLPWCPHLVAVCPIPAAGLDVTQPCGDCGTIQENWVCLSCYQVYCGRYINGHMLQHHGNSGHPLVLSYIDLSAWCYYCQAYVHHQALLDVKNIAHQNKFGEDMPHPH
# Assay: HDAC6 enzyme inhibitory activity (HDAC-Glo I/II Assay kit)
# Format: biochemical
# Settings: 10 μM; wells without enzyme = 100% inhibition; read-out: HDAC6 inhibitory rate (%) (10 μM)
# How it was run: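 Luminescent HDAC-Glo I/II readout after 20 min room-temperature reaction with substrate-developer, following 60 min compound–enzyme preincubation. Enzyme: full-length HDAC6 from Sf-9 cells, GST-purified; buffer 24 mM Tris-HCl pH 7.5, 0.01% Tween-20, glutathione, salts. Wells lacking enzyme define 100% inhibition.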
row,inhibition at 10 µM [%],Structure (SMILES)
1,99,"COc1ccc(CN2Cc3ncc(-c4nnc(C(F)F)o4)cc3C2=O)cc1 [Example 332, 3-(5-(difluoromethyl)-1,3,4-oxadiazol-2-yl)-6-(4-methoxybenzyl)-6,7-dihydro-5H-pyrrolo[3,4-b]pyridin-5-one]"
2,97,"O=C1c2cc(-c3nnc(C(F)F)o3)cnc2CN1Cc1ccc(Cl)cc1 [Example 333, 6-(4-chlorobenzyl)-3-(5-(difluoromethyl)-1,3,4-oxadiazol-2-yl)-6,7-dihydro-5H-pyrrolo[3,4-b]pyridin-5-one]"
3,93,"O=C1c2cc(-c3nnc(C(F)F)o3)cnc2CN1Cc1ccc(C(F)(F)F)cc1 [Example 334, 3-(5-(difluoromethyl)-1,3,4-oxadiazol-2-yl)-6-(4-(trifluoromethyl)benzyl)-6,7-dihydro-5H-pyrrolo[3,4-b]pyridin-5-one]"
4,101,O=C1c2cc(-c3nnc(C(F)F)o3)cnc2CN1Cc1ccc(OC(F)F)cc1 [Example 335]
5,102,"O=C1c2cc(-c3nnc(C(F)F)o3)cc(F)c2CN1C[C@@H]1CCCN1S(=O)(=O)C1CC1 [Example 336, 2-(((2S)-1-(cyclopropyl-sulfonyl)pyrrolidin-2-yl)methyl)-6-(5-(difluoromethyl)-1,3,4-oxadiazol-2-yl)-4-fluoroisoindolin-1-one]"
6,101,"O=C1c2cc(-c3nnc(C(F)F)o3)ccc2CN1[C@@H]1CCCC[C@H]1N(C(=O)C(F)F)c1ccccn1 [Example 337, N-((1R,2R)-2-(6-(5-(difluoromethyl)-1,3,4-oxadiazol-2-yl)-1-oxo-1,3-dihydro-2H-isoindol-2-yl)-cyclohexyl)-2,2-difluoro-N-(pyridin-2-yl)acetamide]"
7,97,"O=C1c2cc(-c3nnc(C(F)F)o3)cnc2CN1Cc1ccc(F)c(F)c1 [Example 338, 6-(3,4-difluorobenzyl)-3-(5-(difluoromethyl)-1,3,4-oxadiazol-2-yl)-6,7-dihydro-5H-pyrrolo[3,4-b]pyridin-5-one]"
8,96,"O=C1c2cc(-c3nnc(C(F)F)o3)cnc2CN1Cc1ccccc1C(F)(F)F [Example 339, 3-(5-(difluoromethyl)-1,3,4-oxadiazol-2-yl)-6-(2-(trifluoromethyl)benzyl)-6,7-dihydro-5H-pyrrolo[3,4-b]-pyridin-5-one]"
9,96,"O=C1c2cc(-c3nnc(C(F)F)o3)cnc2CN1Cc1ccccc1Cl [Example 340, 6-(2-chlorobenzyl)-3-(5-(difluoromethyl)-1,3,4-oxadiazol-2-yl)-6,7-dihydro-5H-pyrrolo[3,4-b]pyridin-5-one]"
10,82,"CC(C)(C)OC(=O)NCC1(N2Cc3c(F)cc(-c4nnc(C(F)F)o4)cc3C2=O)CCCCC1 [Example 341, tert-butyl ((1-(6-(5-(difluoromethyl)-1,3,4-oxadiazol-2-yl)-4-fluoro-1-oxo-1,3-dihydro-2H-isoindol-2-yl)cyclohexyl)-methyl)carbamate]"
11,100,"O=C1c2cc(-c3nnc(C(F)F)o3)cnc2CN1Cc1cccc(Cl)c1 [Example 342, 6-(3-chlorobenzyl)-3-(5-(difluoromethyl)-1,3,4,- oxadiazol-2-yl)-6,7-dihydro-5H-pyrrolo[3,4-b]pyridin-5-one]"
12,100,"O=C1c2cc(-c3nnc(C(F)F)o3)cc(F)c2CN1C[C@@H]1CC(F)(F)CN1S(=O)(=O)C1CC1 [Example 343, 2-(((2S)-1-(cyclopropyl-sulfonyl)-4,4-difluoro-pyrrolidin-2-yl)methyl)-6-(5-(difluoromethyl)-1,3,4-oxadiazol-2-yl)-4-fluoroisoindolin-1-one]"
13,100,"O=C1c2cc(-c3nnc(C(F)F)o3)cc(F)c2CN1C[C@@H]1CC(F)(F)CN1S(=O)(=O)CC(F)(F)F [Example 344, 6-(5-(difluoromethyl)-1,3,4-oxadiazol-2-yl)-2-(((2S)-4,4-difluoro-1-((2,2,2-trifluoro-ethyl)sulfonyl)pyrrolidin-2-yl)methyl)-4-fluoroiso-indolin-1-one]"
14,99,"O=C1c2cc(-c3nnc(C(F)F)o3)cc(F)c2CN1C[C@@H]1CC(F)(F)CN1S(=O)(=O)c1cccc(F)c1 [Example 345, 2-(((2S)-4,4-difluoro-1-((3-fluorophenyl)sulfonyl)-pyrrolidin-2-yl)methyl)-6-(5-(difluoromethyl)-1,3,4-oxadiazol-2-yl)-4-fluoro-isoindolin-1-one]"
15,94,"O=C1c2cc(-c3nnc(C(F)F)o3)cnc2CN1Cc1ccncc1 [Example 346, 3-(5-(difluoromethyl)-1,3,4-oxadiazol-2-yl)-6-(pyridin-4-ylmethyl)-6,7-dihydro-5H-pyrrolo[3,4-b]pyridin-5-one]"
16,98,"O=C1c2cc(-c3nnc(C(F)F)o3)cnc2CN1C1(c2ccc(F)cc2)CC1 [Example 347, 3-(5-(difluoromethyl)-1,3,4-oxadiazol-2-yl)-6-(1-(4-fluorophenyl)cyclopropyl)-6,7-dihydro-5H-pyrrolo[3,4-b]pyridin-5-one]"
17,99,"O=C1c2cc(-c3nnc(C(F)F)o3)cnc2CN1Cc1ccc(F)cc1F [Example 348, 6-(2,4-difluorobenzyl)-3-(5-(difluoromethyl)-1,3,4-oxadiazol-2-yl)-6,7-dihydro-5H-pyrrolo-[3,4-b]pyridin-5-one]"
18,99,"Cc1cc(CN2Cc3ncc(-c4nnc(C(F)F)o4)cc3C2=O)no1 [Example 349, 3-(5-(difluoromethyl)-1,3,4-oxadiazol-2-yl)-6-((5-methyl-1,2-oxazol-3-yl)methyl)-6,7-dihydro-5H-pyrrolo[3,4-b]pyridin-5-one]"
19,99,"O=C1c2cc(-c3nnc(C(F)F)o3)cnc2CN1C1(c2ccccc2F)CC1 [Example 350, 3-(5-(difluoromethyl)-1,3,4-oxadiazol-2-yl)-6-(1-(2-fluorophenyl)cyclopropyl)-6,7-dihydro-5H-pyrrolo[3,4-b]pyridin-5-one]"
20,98,"O=C1c2cc(-c3nnc(C(F)F)o3)cnc2CN1Cc1ccccc1F [Example 351, 3-(5-(difluoromethyl)-1,3,4-oxadiazol-2-yl)-6-(2-fluoro-benzyl)-6,7-dihydro-5H-pyrrolo[3,4-b]pyridin-5-one]"
21,99,"CC(C)(C)OC(=O)N1CC(F)(F)C[C@@H]1CN1Cc2c(F)cc(-c3nnc(C(F)F)o3)cc2C1=O [Example 352, tert-butyl (2R)-2-((6-(5-(difluoromethyl)-1,3,4-oxadiazol-2-yl)-4-fluoro-1-oxo-1,3-dihydro-2H-isoindol-2-yl)methyl)-4,4-difluoropyrrolidine-1-carboxylate]"
22,98,"O=C1c2cc(-c3nnc(C(F)F)o3)cnc2CN1Cc1cc(F)cc(F)c1 [Example 353, 6-(3,5-difluorobenzyl)-3-(5-(difluoromethyl)-1,3,4-oxadiazol-2-yl)-6,7-dihydro-5H-pyrrolo[3,4-b]pyridin-5-one]"
23,92,"O=C1c2cc(-c3nnc(C(F)F)o3)cc(F)c2CN1C[C@H]1CC(F)(F)CN1 [Example 354, 6-(5-(difluoromethyl)-1,3,4-oxadiazol-2-yl)-2-(((2R)-4,4-difluoropyrrolidin-2-yl)-methyl)-4-fluoroisoindolin-1-one]"
24,100,O=C1c2cc(-c3nnc(C(F)F)o3)cnc2CN1Cc1cccc(C(F)(F)F)c1 [Example 355]
25,101,"O=C1c2cc(-c3nnc(C(F)F)o3)cc(F)c2CN1C[C@H]1CC(F)(F)CN1S(=O)(=O)C1CC1 [Example 356, 2-(((2R)-1-(cyclopropyl-sulfonyl)-4,4-difluoro-pyrrolidin-2-yl)methyl)-6-(5-(difluoromethyl)-1,3,4-oxadiazol-2-yl)-4-fluoro-isoindolin-1-one]"
26,98,"COc1ccccc1CN1Cc2ncc(-c3nnc(C(F)F)o3)cc2C1=O [Example 357, 3-(5-(difluoromethyl)-1,3,4-oxadiazol-2-yl)-6-(2-methoxybenzyl)-6,7-dihydro-5H-pyrrolo[3,4-b]-pyridin-5-one]"
